Test results taken from patent US20210199657A1, “I[…] AND USE THEREOF” (priority 2016, published 2021).

Columns and labels:
[1] = tested on: antibodies contained in pools of serums from patients suffering from active tuberculosis; assay: ELISA screening of peptides on pools of serums from patients with active TB (ratio R); details: for ratio R: for 3 of the 4 serums tested
Experimental: In order to determine which peptides are of interest, a ratio R is calculated, the ratio R being the normalized measurement value of the immune complex formation, relative to the respective background noises of the serums and components used to detect the immune complexes, to, or divided by, the normalized measurement value obtained from the sample derived from a healthy individual relative to the respective background noises of the serums and components used to detect the immune complexes.
In order to determine the immunogenicity of the peptides, they are tested using the following ELISA test:
The peptides are fixed on a Maxisorp (high binding) plate: Incubation overnight at 4° C., concentration of the protein in μg/ml from 20 to 50.
The wells are rinsed with 300 μL of phosphate buffered saline (PBS).
The “wells” are blocked for 2 hours at ambient temperature (19° C.-25° C.) with 200 μL of bovine serum albumin (BSA) 2% and 0.01% of Tween 20.
The wells are rinsed with 200 μL of PBS.
One deposits 100 μL of serums from patients suffering from active TA diluted at 1/100th in blocking solution and incubates for one hour at 37° C.
Perform 3 washes (300 μL) PBS-Tween 20 (0.05%).
One adds 100 μL of antibodies conjugated with peroxidase, diluted at 1/20,000 with blocking solution and incubates for 1 h at 37° C.
One adds 100 μL of 3,3′,5,5′-tetramethylbenzidine (TMB) and incubates for 20 minutes in the dark.
One deposits 50 μL of sulfuric acid at 1N.
A spectrophotometer is used at 450 nm to read the quantity of TMB converted by the peroxidase (indicative of the formation of an immune complex between the peptides and the antibodies contained in the serum).

[2] = tested on: negative pool (serum of individuals not suffering from tuberculosis); assay: ELISA of peptides on negative pool of samples; format: binding, human; details: 450 nm

| Sequence | ratio R [1] | ratio ([1]; for both pools of patients) | Ratio Positive pool 1 ([1]; positive pool 1) | Ratio Positive pool 2 ([1]; positive pool 2) | OD Negative pool [2] |
| --- | --- | --- | --- | --- | --- |
| CNNGDPICSDGNRWR (derived from Rv3452) [Peptide D7, Rv3452 191-205aa] | greater than 1.5 | > 1.5 | 1.7 | 1.7 | 0.303 |
| DADARVAVPRRDDL (DADARVAVPGRRDDL; derived from LipW) [Peptide W7] | greater than 1.5 |  |  |  |  |
| TAACPDAEWFARGR (TAACPDAEVVFARGR; derived from Rv2301) [Peptide Z1] | greater than 1.5 |  |  |  |  |
